Measurements as given in patent publication US20170190744A1 (Vicuron Pharmaceuticals, Inc., priority 2015, published 2017).
≈ marks a conversion by molar mass, not a printed value. Read-outs that look alike come from different tables or passages of the source.

Columns and labels:
[1] = test system: 3797 S aureus clin. Isolate GISA; assay: MIC (microbiological activity); type: cell-based
[2] = Plasma pharmacokinetics in thigh-infected neutropenic mice; conditions: 2.5-80 mg/kg intraperitoneal
Method: Neutropenia in this and all other studies was produced by injections of cyclophosphamide, 150 mg/kg 4 days prior to study, 100 mg/kg 1 day prior to study and 100 mg/kg every 48 h after start of infection until end of study. […] Doses of 2.5, 5, 10, 20, 40, and 80 mg/kg were studied. Drug was administered by intraperitoneal injection of 0.2 ml volume. Blood was removed from groups of three mice by retroorbital aspiration into heparinized capillary tubes at 0.5, 1, 2, 4, 6, 24, 48, 72, and 96 hours after dosing. […] AUC was calculated by the trapezoidal rule from mean concentrations.

G 16440 E coli iperperm = assay: MIC (microbiological activity); type: cell-based; conditions: repeat determinations
S. aureus [3] = assay: MIC in broth, serum, serum ultrafiltrate and albumin (protein binding); type: cell-based; conditions: Staphylococcus aureus
Description: This degree of binding was considered in subsequent pharmacodynamic analyses. The degree of binding in human serum would be estimated to be 96%.

[4] = test system: Gram-positive isolates, including MRSA; assay: Dalbavancin MIC of baseline Gram-positive pathogens (SSTI trial); type: cell-based; conditions: for Dalbavancin MIC, Miscellaneous Streptococcus and nontypeable strains: baseline isolates, MITT
Description: The most common pathogen was S. aureus.

S. pneumoniae [5] = assay: Murine thigh-infection model; type: in vivo, mice; conditions: for 1 Log Kill mg/kg/72 h / 2 Log Kill mg/kg/72 h: q 72 h regimen; for 1 log kill dose / 2 log kill dose: total dose over 6 days
Method: (§1) Each point represents the mean of 4 thighs. Five dose levels, ranging 16-fold were used.
(§2) Five different doses (two-fold increases) were used. Study against S. aureus utilized total dose (mg/kg/6 d) levels ranging from 30 to 480 mg/kg/6 d. […] Each point represents the mean of 4 thighs.
(§3) Each point represents the mean of four thighs.
Each point represents the mean value from 4 thighs. The static dose, and the doses associated with a 1 and 2 log kill were calculated from the parameters estimated by non-linear regression using the Hill equation.

MRSA Staph. aureus 3817 = assay: Staph. aureus murine septicaemia, ED50; type: in vivo; conditions: Staphylococcus aureus, sc, 10 min
Gram-positive pathogen = assay: Phase II SSTI trial: microbiologic response, all organisms; type: in vivo, human; conditions: microbiologically-evaluable population
Method: Microbiological outcome, a secondary efficacy variable, was assessed in the subpopulation of patients who had microbiologically documented SSTI (i.e., at least one identified baseline pathogen). A microbiologic response was assessed for each Gram-positive pathogen identified at baseline (i.e., eradication, presumed eradication, persistence, presumed persistence). For patients for whom follow-up cultures were not performed, the microbiologic responses for baseline pathogens were presumed on the basis of the clinical response. Microbiologic response by patient at the EOT and FU visits was graded as success (i.e., all Gram-positive organisms eradicated or presumed eradicated) or failure (i.e., at least one Gram-positive organism persisted or presumed to have persisted, multiple pathogens with partial eradication). At both the EOT and FU visits, colonization and superinfection were assessed. At the FU visit, a patient's bacteriological response could also include recurrence.

S. aureus [6] = assay: MIC of study organisms (NCCLS microdilution); type: cell-based; conditions: for MBC: Staphylococcus aureus
Method: (§4) MICs were determined in MHB by standard NCCLS microdilution techniques. […] All MICs were performed at least in duplicate.

S. pneumoniae [7] = assay: MIC of study organisms (NCCLS microdilution); type: cell-based; conditions: five pneumococcal organisms
Method: as §4

S. aureus [8] = assay: Murine thigh-infection model; type: in vivo, mice; conditions: for 1 Log Kill mg/kg/72 h / 2 Log Kill mg/kg/72 h: q 72 h regimen; for 1 log kill dose: SA29213, total dose over 6 days
Method: as §1, §2, §3

[9] = Phase II SSTI trial: safety (adverse events); design: species or system human; conditions: in vivo
Method: Each patient who received at least one dose of study drug (ITT population) was evaluated for drug safety through monitoring of adverse events (AE), including abnormal clinical laboratory test results and vital signs. AE were rated by the investigator as to their severity (mild, moderate, severe, life-threatening), and by the relationship to the study drug (not related, unlikely related, possibly related, or probably related).

[10] = Pharmacokinetics in renal impairment and ESRD (VER001-3, VER001-11, VER001-13)
Description: Clinical Study VER001-13 examined subjects with mild and moderate renal impairment and Clinical Study VER001-11 examined subjects with severe renal impairment and subjects with end-stage renal disease (ESRD). Matched control subjects were enrolled in all studies. […] Subjects with ESRD were dependent on dialysis through the course of the study (3 times weekly).

[11] = net static effect, 1 or 2 log kill

SMILES: CN[C@H]1C(=O)N[C@@H]2Cc3ccc(cc3)Oc3cc4cc(c3O[C@@H]3O[C@H](C(=O)O)[C@@H](O)[C@H](O)[C@H]3NC(=O)CCCCCCCCC(C)C)Oc3ccc(cc3Cl)[C@@H](O)[C@@H]3NC(=O)[C@H](NC(=O)[C@@H]4NC(=O)[C@@H](NC2=O)c2cc(cc(O)c2Cl)Oc2cc1ccc2O)c1ccc(O)c(c1)-c1c(O[C@H]2O[C@H](CO)[C@@H](O)[C@H](O)[C@@H]2O)cc(O)cc1[C@@H](C(=O)NCCCN(C)C)NC3=O [Dalbavancin]
- MIC [1]: 2 µg/mL (≈ 1.1 µM)
- half-life [2]: 0.317 to 0.546 days
- MIC (G 16440 E coli iperperm): 16 µg/mL (≈ 8.81 µM)
- MIC (S. aureus [3]; MRSA, read-out: MIC 95% Human Albumin, S. aureus strain MRSA): 8 µg/mL (≈ 4.4 µM)
- MIC (S. aureus [3]; MRSA, read-out: MIC 95% Human Serum, S. aureus strain MRSA): 8 µg/mL (≈ 4.4 µM)
- MIC (S. aureus [3]; MRSA, read-out: MIC 95% Mouse Serum Ultrafiltrate, S. aureus strain MRSA): 0.5 µg/mL (≈ 0.275 µM)
- MIC (S. aureus [3]; MRSA, read-out: MIC 95% Mouse Serum, S. aureus strain MRSA): 32 µg/mL (≈ 17.6 µM)
- MIC (S. aureus [3]; human serum and albumin): 8 µg/mL (≈ 4.4 µM)
- MIC (S. aureus [3]; mouse serum ultrafiltrate): 0.5 µg/mL (≈ 0.275 µM)
- MIC (S. aureus [3]; read-out: MIC 95% Human Albumin, S. aureus strain 25923): 8 µg/mL (≈ 4.4 µM)
- MIC (S. aureus [3]; read-out: MIC 95% Human Serum, S. aureus strain 25923): 8 µg/mL (≈ 4.4 µM)
- MIC (S. aureus [3]; read-out: MIC 95% Mouse Serum Ultrafiltrate, S. aureus strain 25923): 0.5 µg/mL (≈ 0.275 µM)
- MIC (S. aureus [3]; read-out: MIC 95% Mouse Serum, S. aureus strain 25923): 32 µg/mL (≈ 17.6 µM)
- MIC (S. aureus [3]; read-out: MIC (arithmetic), 95% mouse serum): 32 µg/mL (≈ 17.6 µM)
- MICs against Gram-positive isolates, including MRSA (range) ([4]; baseline isolates of the SSTI trial): 0.016 to 0.25 mg/L
- Dalbavancin MIC, Miscellaneous Streptococcus and nontypeable strains ([4]; Single dose Dalbavancin (1100 mg) arm): (0.016)
- Dalbavancin MIC, Miscellaneous Streptococcus and nontypeable strains ([4]; Two-dose Dalbavancin (1000/500 mg) arm): (0.016)
- 1 Log Kill mg/kg/72 h (S. pneumoniae [5]; Mean ± SD of S. pneumoniae strains): 0.93 ± 0.24 mg/kg/72 h
- 24 h AUC/MIC values lower with every 72 h than every 24 h dosing (S. pneumoniae [5]; S. pneumoniae and S. aureus, static dose, 1 and 2 log kill): 1.3 to 2.4 fold
- 1 Log Kill mg/kg/72 h (S. pneumoniae [5]; SP1199, 6 days of therapy): 0.85 mg/kg/72 h
- 2 Log Kill mg/kg/72 h (S. pneumoniae [5]; SP1199, 6 days of therapy): 0.99 mg/kg/72 h
- 1 Log Kill mg/kg/72 h (S. pneumoniae [5]; SP1325, 6 days of therapy): 0.99 mg/kg/72 h
- 1 Log Kill mg/kg/72 h (S. pneumoniae [5]; SP1396, 6 days of therapy): 0.61 mg/kg/72 h
- 2 Log Kill mg/kg/72 h (S. pneumoniae [5]; SP1396, 6 days of therapy): 0.69 mg/kg/72 h
- 1 log kill dose (S. pneumoniae [5]; SP10813, q 12 h): 2.8 mg/kg
- 2 log kill dose (S. pneumoniae [5]; SP10813, q 12 h): 3.5 mg/kg
- 1 log kill dose (S. pneumoniae [5]; SP10813, q 24 h): 1.54 mg/kg
- 2 log kill dose (S. pneumoniae [5]; SP10813, q 24 h): 1.75 mg/kg
- 1 log kill dose (S. pneumoniae [5]; SP10813, q 72 h): 0.77 mg/kg
- 2 log kill dose (S. pneumoniae [5]; SP10813, q 72 h): 0.82 mg/kg
- 1 Log Kill mg/kg/72 h (S. pneumoniae [5]; SP10813, 6 days of therapy): 0.77 mg/kg/72 h
- 2 Log Kill mg/kg/72 h (S. pneumoniae [5]; SP10813, 6 days of therapy): 0.82 mg/kg/72 h
- drop in cfu over the 6 day study (S. pneumoniae [5]; all strains): > 4 log10
- less drug required against pneumococci than S. aureus, based upon 24 h AUC/MIC (S. pneumoniae [5]; every 24 h dosing): 12 to 23 fold
- free drug 24 h AUC/MIC associated with a static effect (S. pneumoniae [5]; every 72 h dosing, 6 days): 7.2±4.5
- free drug AUC/MIC over the 6 days of therapy required for efficacy (S. pneumoniae [5]; [11]): ~100
- reduction in doses necessary for efficacy in presence of neutrophils (S. pneumoniae [5]; normal vs neutropenic mice, 24-hour dosing, not statistically significant): 1.7- to 2.1 fold
- ED50 (MRSA Staph. aureus 3817): 0.7 mg/kg
- eradication/presumed eradication rate at FU, all organisms (Gram-positive pathogen; single-dose dalbavancin): 58%
- microbiologic success rate at EOT (Gram-positive pathogen; single-dose dalbavancin): 38.5%
- microbiologic success rate at FU (Gram-positive pathogen; single-dose dalbavancin): 27.3%
- eradication/presumed eradication rate at FU, all organisms (Gram-positive pathogen; two-dose dalbavancin): 92%
- microbiologic success rate at EOT (Gram-positive pathogen; two-dose dalbavancin): 72.7%
- microbiologic success rate at FU (Gram-positive pathogen; two-dose dalbavancin): 72.7%
- MBC (S. aureus [6]; S. aureus strain 307109): 0.12 µg/mL
- MBC (S. aureus [6]; SA31005): 0.12 µg/mL
- MIC range (S. aureus [6]; six S. aureus isolates): 0.06 to 0.12 µg/mL
- MIC range (S. pneumoniae [7]): 0.004 to 0.03 µg/mL
- 1 Log Kill mg/kg/72 h (S. aureus [8]; MRSA, 6 days of therapy): 62 mg/kg/72 h
- 2 Log Kill mg/kg/72 h (S. aureus [8]; MRSA, 6 days of therapy): 85 mg/kg/72 h
- 1 Log Kill mg/kg/72 h (S. aureus [8]; Mean ± SD of S. aureus strains): 94 ± 46 mg/kg/72 h
- 2 Log Kill mg/kg/72 h (S. aureus [8]; Mean ± SD of S. aureus strains): 120 ± 54 mg/kg/72 h
- 1 log kill dose (S. aureus [8]; q 36 h): 36 mg/kg
- 1 log kill dose (S. aureus [8]; q 72 h): 31 mg/kg
- 1 Log Kill mg/kg/72 h (S. aureus [8]; SA33591, 6 days of therapy): 93 mg/kg/72 h
- 1 Log Kill mg/kg/72 h (S. aureus [8]; SA307109, 6 days of therapy): 34 mg/kg/72 h
- 2 Log Kill mg/kg/72 h (S. aureus [8]; SA307109, 6 days of therapy): 37 mg/kg/72 h
- 1 Log Kill mg/kg/72 h (S. aureus [8]; SA Smith, 6 days of therapy): 95 mg/kg/72 h
- drop in cfu over the 6 day study (S. aureus [8]; all strains): > 4 log10
- free drug AUC/MIC over the 6 days of therapy required for efficacy (S. aureus [8]; [11]): ~1000
- premature discontinuation of treatment due to an AE [9]: No dalbavancin-treated patient discontinued treatment prematurely due to an AE
- t1/2 ([10]; ESRD Postdialysis, VER001-11, 500 mg): 14.5 days
- t1/2 ([10]; ESRD Predialysis, VER001-11, 500 mg): 15.7 days
- t1/2 ([10]; Mild Renal Impairment, VER001-13, 1000 mg): 16.2 days
- t1/2 ([10]; Moderate Renal Impairment, VER001-13, 1000 mg): 18 days
- t1/2 ([10]; Normal Renal Function, VER001-2, 1120 mg): 6.21 days
- t1/2 ([10]; Normal Renal Function, VER001-11, 500 mg): 13.9 days
- t1/2 ([10]; Normal Renal Function, VER001-13, 1000 mg): 17.4 days
- t1/2 ([10]; Severe Renal Impairment, VER001-11, 500 mg): 18.9 days
- t1/2 ([10]; Severe Renal Impairment, VER001-11, 1000 mg): 19.5 days
- increase in concentrations through the first week post-dose vs normal renal function ([10]; subjects with severe renal impairment (VER001-11)): 40%
